Reference: patent US8748572B2, “RNase a peptides, fragments and uses thereof” (priority 2006, dated 2014)

B1: hPRI: human placental RNase inhibitor (Boehringer Mannheim) (protein)
chain: SLDIQSLDIQCEELSDARWAELLPLLQQCQVVRLDDCGLTEARCKDISSALRVNPALAELNLRSNELGDVGVHCVLQGLQTPSCKIQKLSLQNCCLTGAGCGVLSSTLRTLPTLQELHLSDNLLGDAGLQLLCEGLLDPQCRLEKLQLEYCSLSAASCEPLASVLRAKPDFKELTVSNNDINEAGVRVLCQGLKDSPCQLEALKLESCGVTSDNCRDLCGIVASKASLRELALGSNKLGDVGMAELCPGLLHPSSRLRTLWIWECGITAKGCGDLCRVLRAKESLKELSLAGNELGDEGARLLCETLLEPGCQLESLWVKSCSFTAACCSHFSSVLAQNRFLLELQISNNRLEDAGVRELCQGLGQPGSVLRVLWLADCDVSDSSCSSLAATLLANHSLRELDLSNNCLGDAGILQLVESVRQPGCLLEQLVLYDIYWSEEMEDRLQALEKDKPSLRVIS

Columns and labels:
E. coli DH5α = assay: bactericidal colony-forming assay, E. coli; format: cell-based, Escherichia coli; settings: free synthetic peptide; for LD99: E. coli
Method: FIGS. 5 A & B are graphs showing the bactericidal activity of rRNases A-1 and A-2. In panel (A) E. coli DH5α and in panel (B) S. aureus 502A were re-suspended in 100 mM sodium phosphate buffer, pH 7.4, and incubated with the indicated concentrations of chicken leukocyte RNase A-1 (open squares) and A-2 (closed circles) for 4 h at 37° C., plated on RNase-free LB agar, and grown overnight for colony counts.
RNase A polypeptides and fragments according to the invention that have bactericidal activity are particularly preferred for use in the treatment methods of the invention. The bactericidal and bacteriostatic activity of a particular RNase A polypeptides or fragments can be assessed by known protocols, such as that described in the methods section and the following described protocol, herein referred to as “a standard bacterial colony formation assay.” Bactericidal assays are well-described in the art, and are performed as described previously, and as exemplified in Examples 3-6. Briefly, an aliquot from a single bacterial colony overnight culture grown in Luria-Beitani (LB) broth is diluted 1:100 in sodium phosphate, pH 7.4, collected by centrifugation, and resuspended in sodium phosphate, pH 7.4. An aliquot of bacteria in buffer are incubated for 4 hr at 37° C. with recombinant protein or peptide at concentrations indicated, or diluent control and were then diluted 10, 100, or 1000-fold prior to plating on LB agar for overnight growth for colony counts.
Next, the bactericidal activity of chicken leukocyte RNases were examined using a colony-forming assay as previously described for eosinophil cationic protein [28]. […] E. coli was more susceptible to the bactericidal activity of leukocyte rRNase A-2 than was S. aureus, as 5 μM rRNase A-2 reduced the colony count of E. coli 10^7-fold, while reducing the colony count of S. aureus, only 100-fold. Recombinant RNase A-1 had no effect on colony number of E. coli or S. aureus concentrations up to and including […].
Bactericidal assays were performed as described previously with modifications. Briefly, 100 microliters from a single bacterial colony overnight culture grown in Luria-Bertani (LB) broth was diluted 1:100 in 100 mM sodium phosphate, pH 7.4, collected by centrifugation, and resuspended in 1 ml sodium phosphate, pH 7.4. Ten microliters of bacteria in buffer are incubated for 4 hr at 37° C. with 10 microliters recombinant protein or peptide at concentrations indicated, or diluent control and were then diluted 10, 100, or 1000-fold prior to plating on LB agar for overnight growth for colony counts. All points were determined in triplicate.

isoelectric point = format: physicochemical
[1] = system: Salmonella enterica serovar pullorum; assay: bactericidal assay on natural pathogen; format: cell-based; settings: free peptide
Source text: FIG. 11 is a graph showing that the domain III peptide is bactericidal for S. enterica serovar pullorum which is a natural pathogen of domestic poultry. At the highest concentration tested, 100 micromolar, RNase A-2 domain III reduces the colony count from 100-1000 fold (2-3 logs).
The bactericidal actions of the A-2 domain sequences on natural pathogens was explored. The bactericidal activity of the leukocyte RNase A-2 domain III peptide on the natural pathogen Salmonella enterica serovar pullorum was determined using the bactericidal assays as previously described. S. enterica is a gram negative pathogen isolated initially from domestic poultry and is as such a natural target pathogen for a bactericidal agent isolated from chicken granulocytes. […] At the highest concentration tested, 100 micromolar, RNase A-2 domain III reduces the colony count from 100-1000 fold (2-3 logs). Thus, the A-2 domain sequences are useful bactericidal agents against natural pathogens.
Bactericidal assays were performed as described previously with modifications. Briefly, 100 microliters from a single bacterial colony overnight culture grown in Luria-Bertani (LB) broth was diluted 1:100 in 100 mM sodium phosphate, pH 7.4, collected by centrifugation, and resuspended in 1 ml sodium phosphate, pH 7.4. […] All points were determined in triplicate.

[2] = system: Gallus gallus leukocyte RNases; assay: RNase activity with human placental RNase inhibitor; format: biochemical; settings: preincubation with 200 U hPRI, yeast tRNA substrate, pH 7.0
Method: FIGS. 4 A-D are graphs showing the ribonucleolytic activity of recombinant leukocyte RNases. (A) is a graph showing the optimum pH for RNase activity. Enzymatic activity was determined with 50 pmol rRNase A-1 (open squares) and rRNase A-2 (closed circles) that was incubated with 250 μg/ml yeast tRNA in 40 mM sodium phosphate buffer at the pHs indicated. Measurements of A260 per time were converted to pmol/s as described in reference 28 and Methods. (B) is a graph showing the initial rates for RNase activity. Enzymatic activity was determined as described in (A) with 40 mM sodium phosphate buffer, pH 7.0. (C) is a graph showing the substrate preference for RNase activity. […] A260 was measured after precipitation of undigested RNA at each of the time points indicated. […] RNase activity was measured with […] of bovine pancreatic RNase (left) or […] rRNase A-1 and rRNase A-2 (right) with 250 μg/ml of yeast tRNA as substrate with (+) or without (−) 200 U human placental RNase inhibitor (hPR1) in 40 mM sodium phosphate buffer, pH 7.0. […]
The ribonuclease (RNase) assay with yeast tRNA substrate has been described in detail elsewhere. […] In experiments in which the pH optimum was to be determined, 40 mM sodium phosphate buffers of pH 5.0, 5.5, 6.0, 6.5, 7.4 or 8.0 were used instead of the buffer of pH 7.0. […]

Row | Molecule | bactericidal activity of free peptide against E. coli (in words) (E. coli DH5α) | LD99 (E. coli DH5α) | isoelectric point (pI) (isoelectric point) | bactericidal activity (in words) [1] | inhibition of RNase activity [2]
1 | TTRRHFRIT [A-2 domain II peptide] | reduced colony count of E. coli in a dose-dependent manner | 200 µM | 12.8 |  | 
2 | TRIRTRFHT [scrambled domain II peptide] | reduced the colony count of E. coli to the same degree as the wild type A-2 domain II peptide |  |  |  | 
3 | SYTGNQFNHRVRVGCWG [A-1 domain III] | no significant activity |  | 9.9 |  | 
4 | RYSGNQFNRRVRVGCRG [A-2 domain III peptide] | active | 10 µM | 12.3 | bactericidal | 
5 | B1 |  |  |  |  | completely inhibited
